Reference: US8008291B2 (Mimetica Pty Ltd, priority 2008, dated 2011)
pIC50: −log10 of the molar value.

Target: T1, human MC5R (hMC5R) (Homo sapiens, UniProt P33032)
T1 construct: purchased Perkin Elmer RBXMC5M400UA
Experiment: Human MC5R radioligand binding assay (membranes, [125I] NDP-MSH displacement)
Conditions: hMC5R binding; tested as trifluoroacetate or hydrochloride salts, or free bases; read-out: MC5R radioligand IC50
How it was run: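 Displacement of [125I]NDP-MSH (radioiodinated in house, HPLC-purified) from hMC5R membranes by test compound measured after 1 hr incubation at 37° C.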

T1 sequence (P33032 whole entry): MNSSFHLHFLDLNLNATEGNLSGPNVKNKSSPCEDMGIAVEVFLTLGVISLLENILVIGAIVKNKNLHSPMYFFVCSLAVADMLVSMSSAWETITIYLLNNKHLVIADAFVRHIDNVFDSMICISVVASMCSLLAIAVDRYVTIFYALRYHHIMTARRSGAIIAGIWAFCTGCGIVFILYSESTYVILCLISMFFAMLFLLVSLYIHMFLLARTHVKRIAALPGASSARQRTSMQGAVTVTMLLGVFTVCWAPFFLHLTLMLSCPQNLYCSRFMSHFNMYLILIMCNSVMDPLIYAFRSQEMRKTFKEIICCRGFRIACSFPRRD

Compound | pIC50
CC(C)(NC(=O)/C=C/c1ccc(Cl)cc1)[C@@H]1CCN(CC(c2ccccc2)c2ccccc2)C(=O)[C@H](CCN2CCCCC2)N1 [Compound 420, (E)-3-(4-chlorophenyl)-N-(2-((3S,5S)-1-(2,2-diphenylethyl)-2-oxo-3-(2-(piperidin-1-yl)ethyl)-1,4-diazepan-5-yl)propan-2-yl)acrylamide] | > 6.00
C[C@@H](CN1CC[C@@H](CNC(=O)c2ccc3ccccc3c2)N[C@@H](CCN)C1=O)c1ccc(Cl)cc1 [Compound 421, N-(((3S,5S)-3-(2-aminoethyl)-1-((R)-2-(4-chlorophenyl)propyl)-2-oxo-1,4-diazepan-5-yl)methyl)-2-naphthamide] | > 5.00
CC(CN1CC[C@@H](CNC(=O)c2ccc3ccccc3c2)N[C@@H](CCN)C1=O)c1ccc(Cl)cc1 (stereo partly drawn) [Compound 422, N-(((3S,5S)-3-(2-aminoethyl)-1-(2-(4-chlorophenyl)propyl)-2-oxo-1,4-diazepan-5-yl)methyl)-2-naphthamide] | > 5.00
C[C@@H](CN1CC[C@@H](CNC(=O)c2ccc3ccccc3c2)N[C@@H](CCN2CCCCC2)C1=O)c1ccc(Cl)cc1 [Compound 423, N-(((3S,5S)-1-((R)-2-(4-chlorophenyl)propyl)-2-oxo-3-(2-(piperidin-1-yl)ethyl)-1,4-diazepan-5-yl)methyl)-2-naphthamide] | > 5.00
C[C@H](CN1CC[C@@H](CNC(=O)c2ccc3ccccc3c2)N[C@@H](CCN2CCCCC2)C1=O)c1ccc(Cl)cc1 [Compound 424, N-(((3S,5S)-1-((S)-2-(4-chlorophenyl)propyl)-2-oxo-3-(2-(piperidin-1-yl)ethyl)-1,4-diazepan-5-yl)methyl)-2-naphthamide] | > 6.00
CC[C@H](CN1CC[C@@H](CNC(=O)c2ccc(Cl)c(Cl)c2)N[C@@H](CCN(C)c2ccccc2)C1=O)c1ccccc1 [Compound 425, 3,4-dichloro-N-(((3S,5S)-3-(2-(methyl(phenyl)amino)ethyl)-2-oxo-1-((S)-2-phenylbutyl)-1,4-diazepan-5-yl)methyl)benzamide] | > 6.00
CC[C@H](CN1CC[C@@H](CNC(=O)c2ccc(Cl)c(Cl)c2)N[C@@H](CCN(CC)CC)C1=O)c1ccccc1 [Compound 426, 3,4-dichloro-N-(((3S,5S)-3-(2-(diethylamino)ethyl)-2-oxo-1-((S)-2-phenylbutyl)-1,4-diazepan-5-yl)methyl)benzamide] | > 7.00
CC[C@H](CN1CC[C@@H](CNC(=O)c2ccc(Cl)c(Cl)c2)N[C@@H](CCN2CCOCC2)C1=O)c1ccccc1 [Compound 427, 3,4-dichloro-N-(((3S,5S)-3-(2-morpholinoethyl)-2-oxo-1-((S)-2-phenylbutyl)-1,4-diazepan-5-yl)methyl)benzamide] | > 7.00
CC[C@H](CN1CC[C@@H](CNC(=O)c2ccc(Cl)c(Cl)c2)N[C@@H](CCNc2ccccc2)C1=O)c1ccccc1 [Compound 428, 3,4-dichloro-N-(((3S,5S)-2-oxo-3-(2-(phenylamino)ethyl)-1-((S)-2-phenylbutyl)-1,4-diazepan-5-yl)methyl)benzamide] | > 6.00
CC[C@H](CN1CC[C@@H](CNC(=O)c2ccc(Cl)c(Cl)c2)N[C@@H](CCNCc2ccccc2)C1=O)c1ccccc1 [Compound 429, N-(((3S,5S)-3-(2-(benzylamino)ethyl)-2-oxo-1-((S)-2-phenylbutyl)-1,4-diazepan-5-yl)methyl)-3,4-dichlorobenzamide] | > 7.00
CC[C@H](CN1CC[C@@H](CNC(=O)c2ccc(Cl)c(Cl)c2)N[C@@H](CCNC(C)(C)C)C1=O)c1ccccc1 [Compound 430, N-(((3S,5S)-3-(2-(tert-butylamino)ethyl)-2-oxo-1-((S)-2-phenylbutyl)-1,4-diazepan-5-yl)methyl)-3,4-dichlorobenzamide] | > 7.00
CC[C@H](CN1CC[C@@H](CNC(=O)c2ccc(Cl)c(Cl)c2)N[C@@H](CCN2CCN(C)CC2)C1=O)c1ccccc1 [Compound 431, 3,4-dichloro-N-(((3S,5S)-3-(2-(4-methylpiperazin-1-yl)ethyl)-2-oxo-1-((S)-2-phenylbutyl)-1,4-diazepan-5-yl)methyl)benzamide] | > 7.00
CCC[C@@H](CN1CC[C@@H](CNC(=O)c2ccc3ccccc3c2)N[C@@H](CCN2CCCCC2)C1=O)c1ccccc1 [Compound 432, N-(((3S,5S)-2-oxo-1-((R)-2-phenylpentyl)-3-(2-(piperidin-1-yl)ethyl)-1,4-diazepan-5-yl)methyl)-2-naphthamide] | > 7.00
CCC[C@H](CN1CC[C@@H](CNC(=O)c2ccc3ccccc3c2)N[C@@H](CCN2CCCCC2)C1=O)c1ccccc1 [Compound 433, N-(((3S,5S)-2-oxo-1-((S)-2-phenylpentyl)-3-(2-(piperidin-1-yl)ethyl)-1,4-diazepan-5-yl)methyl)-2-naphthamide] | > 7.00
O=C(NC[C@@H]1CCN(CC(c2ccccc2)c2ccccc2)C(=O)[C@H](CCN2CCCCC2)N1)c1ccc(C(F)(F)F)cc1 [Compound 434, N-(((3S,5S)-1-(2,2-diphenylethyl)-2-oxo-3-(2-(piperidin-1-yl)ethyl)-1,4-diazepan-yl)methyl)-4-(trifluoromethyl)benzamide] | > 7.00
NCC[C@@H]1N[C@H](CNC(=O)c2ccc(C(F)(F)F)cc2)CCN(CC(c2ccccc2)c2ccccc2)C1=O [Compound 435, N-(((3S,5S)-3-(2-aminoethyl)-1-(2,2-diphenylethyl)-2-oxo-1,4-diazepan-5-yl)methyl)-4-(trifluoromethyl)benzamide] | > 5.00
O=C(NC[C@@H]1CCN(CC(c2ccccc2)c2ccccc2)C(=O)[C@H](CCN2CCCCC2)N1)c1cccc(C(F)(F)F)c1 [Compound 436, N-(((3S,5S)-1-(2,2-diphenylethyl)-2-oxo-3-(2-(piperidin-1-yl)ethyl)-1,4-diazepan-5-yl)methyl)-3-(trifluoromethyl)benzamide] | > 6.00
NCC[C@@H]1N[C@H](CNC(=O)c2cccc(C(F)(F)F)c2)CCN(CC(c2ccccc2)c2ccccc2)C1=O [Compound 437, N-(((3S,5S)-3-(2-aminoethyl)-1-(2,2-diphenylethyl)-2-oxo-1,4-diazepan-5-yl)methyl)-3-(trifluoromethyl)benzamide] | > 5.00
CC(C)NCC[C@@H]1N[C@H](CNC(=O)c2ccc3cc(Cl)ccc3c2)CCN(Cc2cc(Cl)cc(Cl)c2)C1=O [Compound 438, 6-chloro-N-(((3S,5S)-1-(3,5-dichlorobenzyl)-3-(2-(isopropylamino)ethyl)-2-oxo-1,4-diazepan-5-yl)methyl)-2-naphthamide] | > 8.00
CC(C)NCC[C@@H]1N[C@H](CNC(=O)c2ccc(Cl)c(Cl)c2)CCN(Cc2cc(Cl)cc(Cl)c2)C1=O [Compound 439, 3,4-dichloro-N-(((3S,5S)-1-(3,5-dichlorobenzyl)-3-(2-(isopropylamino)ethyl)-2-oxo-1,4-diazepan-5-yl)methyl)benzamide] | > 7.00
CC[C@H](CN1CC[C@@H](CNC(=O)c2ccc3cc(Cl)ccc3c2)N[C@@H](CCNC(C)C)C1=O)c1ccccc1 [Compound 440, 6-chloro-N-(((3S,5S)-3-(2-(isopropylamino)ethyl)-2-oxo-1-((S)-2-phenylbutyl)-1,4-diazepan-5-yl)methyl)-2-naphthamide] | > 8.00
CC[C@H](CN1CC[C@@H](CNC(=O)c2ccc3cc(Cl)ccc3c2)N[C@@H](CCN)C1=O)c1ccccc1 [Compound 441, N-(((3S,5S)-3-(2-aminoethyl)-2-oxo-1-((S)-2-phenylbutyl)-1,4-diazepan-5-yl)methyl)-6-chloro-2-naphthamide] | > 7.00
CC[C@H](CN1CC[C@@H](CNC(=O)c2ccc(Cl)c(Cl)c2)N[C@@H](CCN(C)Cc2ccccc2)C1=O)c1ccccc1 [Compound 442, N-(((3S,5S)-3-(2-(benzyl(methyl)amino)ethyl)-2-oxo-1-((S)-2-phenylbutyl)-1,4-diazepan-5-yl)methyl)-3,4-dichlorobenzamide] | > 8.00
CC[C@H](CN1CC[C@@H](CNC(=O)c2ccc(Cl)c(Cl)c2)N[C@@H](CCN2CCNCC2)C1=O)c1ccccc1 [Compound 443, 3,4-dichloro-N-(((3S,5S)-2-oxo-1-((S)-2-phenylbutyl)-3-(2-(piperazin-1-yl)ethyl)-1,4-diazepan-5-yl)methyl)benzamide] | > 7.00
CCCCCN(C)CC[C@@H]1N[C@H](CNC(=O)c2ccc(Cl)c(Cl)c2)CCN(C[C@@H](CC)c2ccccc2)C1=O [Compound 444, 3,4-dichloro-N-(((3S,5S)-3-(2-(methyl(pentyl)amino)ethyl)-2-oxo-1-((S)-2-phenylbutyl)-1,4-diazepan-5-yl)methyl)benzamide] | > 7.00
CC[C@H](CN1CC[C@@H](CNC(=O)c2ccc(Cl)c(Cl)c2)N[C@@H](CCN(C(C)C)C(C)C)C1=O)c1ccccc1 [Compound 445, 3,4-dichloro-N-(((3S,5S)-3-(2-(diisopropylamino)ethyl)-2-oxo-1-((S)-2-phenylbutyl)-1,4-diazepan-5-yl)methyl)benzamide] | > 8.00
CC[C@H](CN1CC[C@@H](CNC(=O)c2ccc(Cl)c(Cl)c2)N[C@@H](CCN2CCC(C)CC2)C1=O)c1ccccc1 [Compound 446, 3,4-dichloro-N-(((3S,5S)-3-(2-(4-methylpiperidin-1-yl)ethyl)-2-oxo-1-((S)-2-phenylbutyl)-1,4-diazepan-5-yl)methyl)benzamide] | > 8.00
CC[C@H](CN1CCC(CNC(=O)c2ccc3cc(Cl)ccc3c2)NC(C2CCNCC2)C1=O)c1ccccc1 (stereo partly drawn) [Compound 447, (S)-6-chloro-N-((2-oxo-1-(2-phenylbutyl)-3-(piperidin-4-yl)-1,4-diazepan-5-yl)methyl)-2-naphthamide] | > 7.00
CC[C@H](CN1CCC(CNC(=O)c2ccc3cc(Cl)ccc3c2)NC(C2CCN(CCC(C)C)CC2)C1=O)c1ccccc1 (stereo partly drawn) [Compound 448] | > 7.00
CC[C@H](CN1CC[C@@H](CNC(=O)c2ccc(Cl)c(Cl)c2)N[C@@H](CCN2CC(C)CC(C)C2)C1=O)c1ccccc1 (stereo partly drawn) [Compound 449, 3,4-dichloro-N-(((3S,5S)-3-(2-(3,5-dimethylpiperidin-1-yl)ethyl)-2-oxo-1-((S)-2-phenylbutyl)-1,4-diazepan-5-yl)methyl)benzamide] | > 7.00
